Here are results for three molecules from patent US6346533B1, “Intraconazole exhibiting an improved solubility, a method of preparing the same and a pharmaceutical composition for oral administration comprising the same” (Dong-A Pharmaceutical Co., Ltd., priority 1997, dated 2002).

For series [1] the following is noted: n-octanol and aqueous buffer solution of pH 8.1; cited from earlier work.
The conditions of series [2]: cited from earlier work.
A short description of series [3]: Determination of solubility in artificial gastric juice. Format: physicochemical. As to conditions: 2 hours; for Solubility: artificial gastric juice, 37° C., pH 1.2. How it is done: Excess of itraconazole from Example 1 and conventional itraconazole prepared without dissolution-induced drying were added to artificial gastric juice of pH 1.2 and shaken at 37° C. for 2 hours, respectively. Each of the mixture were filtered through a membrane filter with pore diameter of […] and each of the filtrate was subjected to high-performance liquid chromatography, thereby obtaining gastric juice solubility.

≈ marks a conversion by molar mass, not a printed value.

With `CCC(C)n1ncn(-c2ccc(N3CCN(c4ccc(OCC5COC(Cn6cncn6)(c6ccc(Cl)cc6Cl)O5)cc4)CC3)cc2)c1=O` (racemic) [Itraconazole, itraconazole], the log partition coefficient in series [1] was 5.66. The Solubility in water result in series [2] is listed as “less than 1 μg/ml”.
The term Solubility denotes the concentration that dissolves in the medium under given conditions. On to `CCC(C)n1ncn(-c2ccc(N3CCN(c4ccc(OCC5COC(Cn6cncn6)(c6ccc(Cl)cc6Cl)O5)cc4)CC3)cc2)c1=O` (centres unmarked) [Itraconazole of Example 1, itraconazole], for which the “Solubility relative to itraconazole without dissolution-induced drying” value in series [3] (artificial gastric juice pH 1.2, 37° C.) was determined as 62 times. Further, the Solubility in series [3] is 218.6 µg/mL (≈ 310 µM).
In turn, `CCC(C)n1ncn(-c2ccc(N3CCN(c4ccc(OCC5COC(Cn6cncn6)(c6ccc(Cl)cc6Cl)O5)cc4)CC3)cc2)c1=O` (centres unmarked) [The conventional itraconazole without dissolution-induced dr] came in with a Solubility in series [3] of 3.5 µg/mL (≈ 4.96 µM).
